Values of other authors as cited in patent publication US11951104B2 (LIVZON PHARMACEUTICAL GROUP INC, priority 2018, dated 2024).

Columns and labels:
5-HT1A receptors = biological target: T1, 5-HT1A receptors (Homo sapiens, UniProt P08908); conditions: background
T1 sequence (P08908 1-422): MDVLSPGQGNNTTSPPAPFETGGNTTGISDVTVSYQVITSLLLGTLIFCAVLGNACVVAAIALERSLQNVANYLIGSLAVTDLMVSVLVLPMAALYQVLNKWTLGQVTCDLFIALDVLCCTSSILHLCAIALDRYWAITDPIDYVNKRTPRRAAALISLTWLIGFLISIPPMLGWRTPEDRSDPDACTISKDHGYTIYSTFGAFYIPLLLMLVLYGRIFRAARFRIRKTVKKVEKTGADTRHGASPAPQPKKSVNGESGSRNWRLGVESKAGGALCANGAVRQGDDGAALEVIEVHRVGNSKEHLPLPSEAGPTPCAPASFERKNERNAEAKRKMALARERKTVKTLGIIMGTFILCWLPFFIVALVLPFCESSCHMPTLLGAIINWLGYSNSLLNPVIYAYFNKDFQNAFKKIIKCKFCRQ

5-HT2A receptors = 5-HT2A receptors (Homo sapiens, UniProt P28223); conditions: background
5-HT2A receptors, sequence (P28223 whole entry): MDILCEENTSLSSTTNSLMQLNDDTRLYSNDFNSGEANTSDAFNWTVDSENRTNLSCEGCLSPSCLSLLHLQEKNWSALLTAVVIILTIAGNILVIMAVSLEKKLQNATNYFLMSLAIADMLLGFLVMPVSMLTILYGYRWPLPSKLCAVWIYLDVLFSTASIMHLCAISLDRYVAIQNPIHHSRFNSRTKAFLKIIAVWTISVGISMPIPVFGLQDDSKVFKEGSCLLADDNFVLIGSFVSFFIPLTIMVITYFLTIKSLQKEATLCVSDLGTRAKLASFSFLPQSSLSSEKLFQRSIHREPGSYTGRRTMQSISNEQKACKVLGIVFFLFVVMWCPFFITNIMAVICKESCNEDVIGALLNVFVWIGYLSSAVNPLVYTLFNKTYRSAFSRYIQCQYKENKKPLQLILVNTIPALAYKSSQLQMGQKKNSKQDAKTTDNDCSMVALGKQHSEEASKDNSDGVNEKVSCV

O=C1CCc2ccc(OCCCCN3CCN(c4cccc(Cl)c4Cl)CC3)cc2N1 [aripiprazole]
affinity for 5-HT1A receptors (5-HT1A receptors): high affinity
affinity for 5-HT2A receptors (5-HT2A receptors): high affinity
